Assay results reported in PubChem BioAssay (NCI).
Values joined by “and” are separate entries in the source; they are usually repeats but may differ in a detail not shown here. Equal values may be shown once.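 Interpolation was linear, between the two tested concentrations surrounding the appropriate level; five concentrations were tested over 48 hours in 96-well plates. At the TGI there is no net growth.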

Legend:
Test in all cases: DTP human tumour cell line panel, 48 h
[1] = test system: K-562 leukemia
[2] = test system: HT29 colon
[3] = test system: HCT-116 colon
[4] = test system: A498 renal
[5] = test system: HOP-92 NSCLC
[6] = test system: SK-MEL-5 melanoma
[7] = test system: SK-MEL-2 melanoma
[8] = test system: NCI-H522 lung
[9] = test system: U251 CNS
[10] = test system: SF-268 CNS
[11] = test system: DU-145 prostate
[12] = test system: HCC-2998 colon
[13] = test system: MCF7 breast

SMILES	TGI [1] [µM]	TGI [2]	TGI [3] [µM]	TGI [4] [µM]	TGI [5] [µM]	TGI [6]	TGI [7] [µM]	TGI [8] [µM]	TGI [9]	TGI [10] [µM]	TGI [11]	TGI [12]	TGI [13] [µM]
c1ccc2c(c1)OCCOCCOc1ccccc1OCCO2	> 100	> 100 µM	> 100	> 100	> 100	> 100 µM	> 100	> 100	> 100 µM	> 100	–	–	–
O=C(Cn1c2ccc(Br)cc2c2nc3ccccc3nc21)NNC(=S)NC1CCCCC1	34.2	28.9 µM	26.9	35.1	27.1	28 µM	40.4	27.6	28.3 µM	39.6	29.4 µM	34.6 µM	–
COc1ccc2nc3cc(Cl)ccc3c(Sc3ccc(NC(C)=O)cc3)c2c1	> 100	> 100 µM	> 45.3	> 60.9	> 27	> 45.5 µM	> 26.4	7.85	> 20.7 µM	> 40	–	5.93 µM	–
O=C1CCSCCC(=O)Nc2ccccc2N1	> 100	> 100 µM	> 100	> 100	> 100	> 100 µM	> 100	> 100	> 100 µM	> 100	> 100 µM	–	–
CC(=O)OCC1OC(n2c(C)c(N=Nc3ccc(Cl)cc3)c(C)c(C#N)c2=S)C(OC(C)=O)C(OC(C)=O)C1OC(C)=O (stereo not given)	> 100	> 100 µM	> 100	–	20.2	> 100 µM	92.1	–	98 µM	> 100	> 100 µM	> 100 µM	> 100
Cc1cc(C)nc(NC(P(=O)(O)O)P(=O)(O)O)n1	–	> 100 µM	> 100	–	–	> 100 µM	–	> 100	–	> 100	> 100 µM	> 100 µM	> 100
CC(=O)OCCOCNC(=S)N/N=C/c1ccc([N+](=O)[O-])s1	> 100	> 100 µM	54	> 100	> 100	81.7 µM	> 100	24.5	> 100 µM	> 100	–	> 100 µM	–
NC1(CCNC(=O)c2ccccc2)CCN(C(=O)c2ccccc2)CC1	> 100	> 100 µM	> 100	–	> 100	> 100 µM	> 100	> 100	> 100 µM	> 100	> 100 µM	–	> 100
CCOC(=O)CCC(NC(=O)c1ccc(NCc2ccc3nc(-c4ccccc4)c(Cl)nc3c2)cc1)C(=O)OCC (stereo not given)	> 100	> 100 µM	> 100	78.6	27.3	23.7 µM	25.9	57.8	> 100 µM	> 100	–	> 100 µM	–
Nc1c(S(=O)(=O)c2ccccc2)c2nc3ccccc3nc2n2c1nc1ccccc12	> 100	> 100 µM	> 100	> 100	> 100	> 66.2 µM	> 100	> 100	> 47.5 µM	> 72.9	–	> 100 µM	–
Cc1ccc(C(=O)NCc2ccccc2)cc1N=NN(C)C	> 100	> 100 µM	> 100	–	> 100	> 100 µM	> 100	90.1	> 100 µM	> 100	> 100 µM	> 100 µM	> 100
CC1CC(Nc2ccc(Br)cc2)N(C(=O)c2ccc(Br)cc2)O1 (stereo not given)	> 10	> 10 µM	> 10	–	–	> 10 µM	> 10	> 10	–	> 10	> 10 µM	> 10 µM	> 10
CCCCC1Cc2cc(O)ccc2-c2nc3cc(O)ccc3n21 (stereo not given) (tested in a mixture with another compound)	41.3	31.9 µM	27	–	30.5	26.3 µM	–	25	27.5 µM	33.3	> 100 µM	27.4 µM	37.5
C[n+]1c2ccccc2c(NC(CCCN=C(N)N)C(=O)O)c2ccccc21 (stereo not given)	> 100	> 100 µM	> 100	> 100	> 100	> 100 µM	> 100	> 100	> 100 µM	> 100	–	> 100 µM	–
CC(NC(=O)c1c(O)[nH]c(=S)[nH]c1=O)c1ccc([N+](=O)[O-])cc1 (stereo not given)	> 100	> 100 µM	> 100	–	> 100	> 100 µM	> 100	–	> 100 µM	> 100	> 100 µM	> 100 µM	> 100
O=C1C=C(Nc2ccc(S(=O)(=O)Nc3nccs3)cc2)c2ccccc2C1=O	> 100	39.3 µM	> 100	> 100	> 100	38.7 µM	82.4	> 100	48 µM	> 100	–	47.3 µM	36.1
CC(=O)c1c(N=[N+]=[N-])c2cccc3c2n(c1=O)CCC3	> 100	35.5 µM	33.5	55.6	67.7	28.5 µM	75.2	28.1	31.6 µM	38.6	–	32 µM	62.5
CN1CCc2c(sc3[nH]c(=S)[nH]c(=S)c23)C1	> 100	> 100 µM	> 100	–	> 100	> 100 µM	> 100	> 100	> 100 µM	> 100	> 100 µM	–	> 100
COc1ccc(CNc2nc(NC3CCCCC3)nc(NC3CCCCC3)n2)cc1	> 100	> 100 µM	16	–	> 100	14.4 µM	80.3	28.8	84.7 µM	> 100	> 100 µM	–	18.8

SMILES	TGI [1] [µM]	TGI [2]	TGI [3] [µM]	TGI [4] [µM]	TGI [5] [µM]	TGI [6]	TGI [7] [µM]	TGI [8] [µM]	TGI [9]	TGI [10] [µM]	TGI [11]	TGI [12]	TGI [13] [µM]
Cc1n[n+](Cc2ccccc2)c2sc(N)nn12	> 100	> 100 µM	> 100	> 100	–	> 100 µM	> 100	76.2	> 100 µM	> 100	> 100 µM	–	> 100
COC(=O)[C@@H](NC(=O)N(Cc1ccccc1)C[C@H](CC(C)C)NC(=O)[C@@H](NC(=O)OC(C)(C)C)C(C)C)C(C)C	> 100	> 100 µM	> 100	> 100	> 100	> 100 µM	> 100	> 100	> 100 µM	> 100	> 100 µM	> 100 µM	–
COC(=O)N[C@H](C(=O)NC(OCc1ccccc1)C1COC(C)(C)O1)C(C)O[Si](C)(C)C(C)(C)C (stereo not given in full)	> 100	> 100 µM	> 100	> 100	> 100	65.8 µM	–	–	> 100 µM	> 100	> 100 µM	> 100 µM	> 100
CCCCCCc1cc2cc(C(=O)Nc3ccc(F)cc3)c(=N)oc2cc1O	12.3	> 100 µM	11.1	> 100	–	3.28 µM	9.98	6.13	8.64 µM	5.61	6.78 µM	> 100 µM	33.7
COCCn1cnc2c(Cl)nc(Nc3ccccc3)nc21	> 100	> 100 µM	> 100	> 100	–	> 100 µM	47.4	–	> 100 µM	> 100	> 100 µM	40 µM	> 100
C=C1CC[C@H]2C(=O)OC(c3ccoc3)C[C@]2(C)C/C=C\C=C/1C(=O)OC (stereo not given in full)	> 25	> 25 µM	> 25	> 25	> 25	> 25 µM	> 25	–	> 25 µM	–	–	> 25 µM	> 25
CC(=O)OC(CCC1(C)OC1COc1ccc(CCNC(=O)C=C(C)C)cc1)C(C)(C)OC(C)=O (stereo not given)	> 100	> 100 µM	> 100	> 100	> 100	15.6 µM	> 100	> 100	> 100 µM	> 100	> 100 µM	> 100 µM	–
O=C(NCCN1CCOCC1)c1ccc(I)cc1	> 100	> 100 µM	–	> 100	–	> 100 µM	–	–	> 100 µM	> 100	–	> 100 µM	> 100
O=P1(Cc2ccccc2)N(Cc2ccccc2)[C@@H]2CCCC[C@H]2N1Cc1ccccc1	19.2	18.6 µM	20	–	–	3.57 µM	25.4	14.4	25.5 µM	24.3	27.1 µM	22 µM	23.3
Cc1ccc(NC(=O)C(=O)C2C(=O)NC(=O)NC2=O)cc1C	> 100	> 100 µM	> 100	–	> 100	> 100 µM	> 100	> 100	> 100 µM	> 100	–	> 100 µM	–
CCOC(=O)C(NC(=O)c1ccccc1)(N1CCN(c2cc3c(cc2F)c(=O)c(C(=O)O)cn3C2CC2)CC1)C(F)(F)F (stereo not given)	46.6	–	31.6	72	38	29.4 µM	38.9	–	> 100 µM	41.8	> 100 µM	38.6 µM	–
COc1cccc(-c2nc(-c3cnccn3)n(C/C=C/c3ccccc3)n2)c1	> 10	> 10 µM	–	–	> 10	–	> 10	> 10	> 10 µM	> 10	–	> 10 µM	> 10
COc1ccc(/C=N/N=C(\N)NO)c(OC)c1C	> 100	> 100 µM	> 100	87.6	72.5	–	70.6	26.4	> 100 µM	> 100	–	22.1 µM	–
O=c1[nH]c2nc3ccccc3c(=O)n2/c1=C/c1cccs1	> 100	> 100 µM	> 100	–	> 100	> 100 µM	> 100	> 100	> 100 µM	> 100	> 100 µM	> 100 µM	> 100
CCC1CC(O)c2c(O)c3c(c(O)c2C1O)C(=O)c1cccc(O)c1C3=O (stereo not given) (tested in a mixture with another compound)	0.0319	0.181 µM and 0.202 µM	0.741	0.03	–	0.0374 µM and 0.0138 µM	0.0457	0.0658	0.23 µM and 0.331 µM	0.501	0.135 µM and 0.651 µM	0.0478 µM and 0.0298 µM	6.04
NCCCNCCCCN1CCOC1=O	> 100	> 100 µM	> 100	> 100	–	> 100 µM	> 100	> 100	> 100 µM	> 100	> 100 µM	> 100 µM	> 100
NCCCN(CCCN)CCc1cn(C(=O)c2ccccc2)cn1	> 37.4	29.5 µM	> 51.2	–	13.2	21 µM	24.7	64.9	30.1 µM	24.2	11.3 µM	19 µM	11.4
CC(NC(=O)Cc1ccccc1)NC(=O)C(C)C(=O)NCc1ccccc1 (stereo not given)	> 100	> 100 µM	> 100	–	88.8	> 100 µM	> 100	> 100	> 100 µM	> 100	> 100 µM	–	> 100
CCCC(=O)[O-].CCCC(=O)[O-].NCCN.NCCN.[Co+3].[O-][Cl+3]([O-])([O-])[O-]	> 100	> 100 µM	> 100	> 100	> 100	> 100 µM	> 100	> 100	> 100 µM	> 100	–	> 100 µM	–
